Measurements reported in patent publication US20250064794A1, “A THERAPEUTIC COMBINATION COMPRISING A TIGIT ANTAGONIST, A PD-1 ANTAGONIST, AND LENVATINIB” (EISAI R&D MANAGEMENT CO., LTD., priority 2021, published 2025).

Experiments:
CT26 tumor = experiment: Anti-tumor efficacy in CT26 tumor model; format: in vivo, female BALB/c mice
Description: The present Example describes anti-tumor effects of a combination of a TIGIT antagonist, a PD-1 antagonist and lenvatinib using a CT26 tumor model.
Prior to treatment initiation, female BALB/c mice aged 8 weeks weighing between 18 to 21 grams were anesthetized and subcutaneously injected into the rear flank with 0.3×10^6 CT26 log-phase sub-confluent cells. When the mean tumor volume of inoculated animals with CT26 reached approximately 146 mm^3 (13 days later) mice were pair-matched into 8 treatment groups consisting of 10 mice per group.
Antibody Reagents in this Example Include: • Anti-PD-1 mIgG1 antibody, which is a murinized version of a rat anti-mouse PDT Ab with a mouse IgG1 Fe; • Anti-TIGIT mIgG2a antibody having a mouse Fe region of mIgG2a subtype that is the murine counterpart isotype to human isotype IgG1; • Isotype mIgG1 antibody, which is a mouse IgG1 isotype-matched control monoclonal antibody specific for adenoviral hexon 25; and • Isotype mIgG2a antibody, which is a mouse IgG2a isotype-matched control monoclonal antibody specific for adenoviral hexon 25.
• 1) 0.5% methylcellulose (Vehicle)+isotype mIgG1 antibody+isotype mIgG2a antibody; • 2) Vehicle+anti-PD-1 mIgG1 antibody+isotype mIgG1 antibody; • 3) Vehicle+isotype mIgG1 antibody+anti-TIGIT mIgG2a antibody; • 4) Lenvatinib+isotype mIgG1 antibody+isotype mIgG2a antibody; • 5) Vehicle+anti-PD-1 mIgG1 antibody+anti-TIGIT mIgG2a antibody; • 6) Lenvatinib+anti-PD-1 mIgG1 antibody+isotype mIgG2a antibody; • 7) Lenvatinib+isotype mIgG1 antibody+anti-TIGIT mIgG2a antibody; and • 8) Lenvatinib+anti-PD-1 mIgG1 antibody+anti-TIGIT mIgG2a antibody.
Vehicle and lenvatinib were orally gavage-dosed once daily (QD) at 10 mg/kg body weight. Isotype control, a mouse monoclonal antibody specific for adenoviral hexon on IgG1 or IgG2a backbones, as well as anti-PD-1 and anti-TIGIT antibodies were dosed intraperitoneally every 5 days at 10 mg/kg body weight. Start of treatments was considered Day 0 and dosing based on described schedules continued as described until Day 40. […]

[1] = in vivo; cited from earlier work
[2] = Day 40, 10 mice per group, lenvatinib 10 mg/kg QD, antibodies 10 mg/kg IP every 5 days

For `COc1cc2nccc(Oc3ccc(NC(=O)NC4CC4)c(Cl)c3)c2cc1C(N)=O` [Lenvatinib monotherapy, 4-[3-chloro-4-(cyclopropylaminocarbonyl)aminophenoxy]-7-methoxy-6-quinolinecarboxamide], the “TGI at Day 12” value (CT26 tumor; CT26 s.c. tumors, treatment started at 146 mm^3, lenvatinib 10 mg/kg orally QD, antibodies 10 mg/kg intraperitoneally every 5 days, vs Vehicle group at Day 12) was 36% (p = 0.014), the “End of study CRs (complete tumor regressions)” value (CT26 tumor; [2]) was 0 CRs, 0 PRs and the “End of study PRs (partial tumor regressions)” value (CT26 tumor; [2]) was 0 CRs, 0 PRs. The half-life [1] was 28 h.
